Test results published in PubChem BioAssay AID624376 (Broad Institute, 2012).
Results filed as inconclusive are left out. The source made the active and inactive calls. The rule behind the calls is not given here.

tested on: not listed separately; assay: inhibitors of EBV LMP1 NF-kappaB signaling – cell-based, luciferase reporter, luminescence, dry powder, set 2, dose response (AID 624376); conditions: LMP1-induced NF-kappaB luciferase reporter cells, luminescence; at 35 µM (top of the series)

**Q.** For CS(=O)(=O)Nc1ccc2c(c1)[C@@H]1C[C@H](CC(=O)NCC3CC3)O[C@H](CO)[C@@H]1O2, which activity change, negative = inhibition is on record?
**A.** The activity change, negative = inhibition was -9.8% (inactive).

**Q.** For C[C@@H](NC(=O)C[C@@H]1C=C[C@@H](NC(=O)Cc2ccccn2)[C@H](CO)O1)c1ccccc1, which activity change, negative = inhibition is on record?
**A.** The activity change, negative = inhibition was -0.374% (inactive).

**Q.** With C[C@@H]1CN([C@H](C)CO)C(=O)c2c(c3ccccc3n2C)-c2ccccc2CO[C@@H]1CN(C)C(=O)Nc1ccc(F)cc1 as the molecule, how does the activity change, negative = inhibition read?
**A.** Its activity change, negative = inhibition is 3.49% (inactive).

**Q.** With CS(=O)(=O)Nc1ccc2c(c1)[C@H]1C[C@@H](CC(=O)NCC3CC3)O[C@@H](CO)[C@H]1O2 as the molecule, how does the activity change, negative = inhibition read?
**A.** Its activity change, negative = inhibition is 5.22% (inactive).

tested on: LMP1-induced NF-kappaB luciferase reporter cells, luminescence; assay: as above; conditions: not given

**Q.** Which AC50 does the source give for COc1ccccc1C#Cc1cnc2c(c1)C(=O)N([C@@H](C)CO)C[C@H](C)[C@@H](CN(C)C(=O)c1ccc3c(c1)OCO3)O2 here?
**A.** Its AC50 is 25.9 µM.

**Q.** With Cc1ccc(S(=O)(=O)N(C)C[C@H]2Oc3cc(C#Cc4ccncc4)ccc3S(=O)(=O)N([C@@H](C)CO)C[C@@H]2C)cc1 as the molecule, how does the AC50 read?
**A.** The AC50 was 21.2 µM.

**Q.** Which AC50 does the source give for CN1C(=O)c2cc(NC(=O)c3ccc(C(F)(F)F)cc3)ccc2OC[C@@H]2O[C@@H](CC(=O)NC3Cc4ccccc4C3)CC[C@H]21 here?
**A.** The AC50 was 24.5 µM.

**Q.** With O=C(C[C@@H]1C[C@H]2c3cc(NC(=O)c4ccc5c(c4)OCO5)ccc3O[C@H]2[C@H](CO)O1)NC1CCCCC1 as the molecule, how does the AC50 read?
**A.** The AC50 was 16.8 µM.

**Q.** Which AC50 does the source give for COc1cccc(C#Cc2ccc([C@@H]3[C@@H](C#N)N(C(=O)c4ccccn4)[C@@H]3CO)cc2)c1 here?
**A.** Its AC50 is 19.2 µM.

**Q.** For COc1ccccc1C#Cc1ccc([C@H]2[C@H](C#N)N(C(=O)C3CC3)[C@H]2CO)cc1, which AC50 is on record?
**A.** Its AC50 is 30.5 µM.

**Q.** With O=C(C[C@@H]1CC[C@@H]2[C@H](COC[C@@H](O)CN2Cc2ccc3c(c2)OCO3)O1)Nc1ccc(-c2ccccc2)cc1 as the molecule, how does the AC50 read?
**A.** Its AC50 is 10.2 µM.

**Q.** With CC(C)NC(=O)N1Cc2cc(C(=O)NC3Cc4ccccc4C3)nc(-c3cccc(-c4cccnc4)c3)c2[C@@H]1CCO as the molecule, how does the AC50 read?
**A.** The AC50 was 22 µM.

**Q.** With C[C@H]1CN([C@@H](C)CO)C(=O)c2cc(C#Cc3ccccc3F)cnc2O[C@@H]1CN(C)C(=O)C1CCCCC1 as the molecule, how does the AC50 read?
**A.** Its AC50 is 27.7 µM.

**Q.** Which AC50 does the source give for COc1ccccc1C#Cc1ccc2c(c1)O[C@H](CN(C)Cc1cccnc1)[C@@H](C)CN([C@@H](C)CO)S2(=O)=O here?
**A.** The AC50 was 13.9 µM.

**Q.** For CC(C)(C)[S@@](=O)N1Cc2cc(C(=O)NCc3ccccc3F)nc(-c3cccc(-c4cccnc4)c3)c2[C@H]1CCO, which AC50 is on record?
**A.** Its AC50 is 35.6 µM.

**Q.** With Cc1cc(C(=O)Nc2ccc3c(c2)C(=O)N(C)[C@@H]2CC[C@@H](CC(=O)NCc4ccc(-c5ccccc5)cc4)O[C@H]2CO3)no1 as the molecule, how does the AC50 read?
**A.** The AC50 was 25.9 µM.

**Q.** For C[C@H]1CN([C@@H](C)CO)S(=O)(=O)c2ccc(C#Cc3ccncc3)cc2O[C@H]1CN(C)C(=O)Nc1ccc2c(c1)OCO2, which AC50 is on record?
**A.** The AC50 was 19.7 µM.

**Q.** For COc1cccc(C#Cc2ccc([C@@H]3[C@H](C#N)N(C(=O)c4ccccn4)[C@H]3CO)cc2)c1, which AC50 is on record?
**A.** Its AC50 is 29.5 µM.

**Q.** Which AC50 does the source give for C[C@@H]1CN([C@H](C)CO)S(=O)(=O)c2ccc(/C=C/c3ccccc3)cc2O[C@H]1CN(C)C(=O)NC1CCCCC1 here?
**A.** The AC50 was 25.3 µM.

**Q.** Which AC50 does the source give for Cc1cc(C(=O)Nc2ccc3c(c2)C(=O)N(C)[C@H]2CC[C@H](CC(=O)NCc4ccc(-c5ccccc5)cc4)O[C@H]2CO3)no1 here?
**A.** Its AC50 is 14.7 µM.

**Q.** For COc1ccccc1C#Cc1ccc2c(c1)O[C@H](CN(C)Cc1cccnc1)[C@H](C)CN([C@H](C)CO)S2(=O)=O, which AC50 is on record?
**A.** Its AC50 is 22.9 µM.

**Q.** Which AC50 does the source give for O=C(Nc1ccc(C(F)(F)F)cc1)Nc1ccc2c(c1)[C@H]1C[C@H](CC(=O)N3CCc4ccccc4C3)O[C@H](CO)[C@H]1O2 here?
**A.** Its AC50 is 24.2 µM.

**Q.** For CN(C)C(=O)c1cccc(-c2cccc(-c3nc(C(=O)NCc4ccccc4)cc4c3[C@@H](CCO)N([S@](=O)C(C)(C)C)C4)c2)c1, which AC50 is on record?
**A.** The AC50 was 16.9 µM.

**Q.** For O=C(Nc1ccc(C(F)(F)F)cc1)Nc1ccc2c(c1)[C@@H]1C[C@H](CC(=O)N3CCc4ccccc4C3)O[C@@H](CO)[C@@H]1O2, which AC50 is on record?
**A.** Its AC50 is 15.1 µM.

**Q.** With O=C(C[C@@H]1CC[C@@H]2[C@H](COC[C@@H](O)CN2Cc2ccc(Oc3ccccc3)cc2)O1)N1CCc2ccccc2C1 as the molecule, how does the AC50 read?
**A.** The AC50 was 16.4 µM.

**Q.** For CC(C)NC(=O)N1Cc2cc(C(=O)NC3Cc4ccccc4C3)nc(-c3cccc(-c4cccnc4)c3)c2[C@H]1CCO, which AC50 is on record?
**A.** Its AC50 is 33.6 µM.

**Q.** Which AC50 does the source give for CN1C(=O)c2cc(NC(=O)Cc3cccs3)ccc2OC[C@@H]2O[C@H](CC(=O)NCc3ccc(-c4ccccc4)cc3)CC[C@H]21 here?
**A.** Its AC50 is 33 µM.

**Q.** Which AC50 does the source give for CN(C)c1ccc2c(c1)[C@@H]1C[C@@H](CC(=O)NCc3ccc(Oc4ccccc4)cc3)O[C@H](CO)[C@@H]1O2 here?
**A.** The AC50 was 21.6 µM.

**Q.** With O=C(C[C@H]1C[C@@H]2c3cc(NS(=O)(=O)c4ccc(F)cc4)ccc3O[C@@H]2[C@@H](CO)O1)NCc1ccc(Oc2ccccc2)cc1 as the molecule, how does the AC50 read?
**A.** The AC50 was 13.5 µM.

**Q.** Which AC50 does the source give for CC(C)c1ccc(NC(=O)C[C@H]2CC[C@H]3[C@@H](COc4ccc(NC(=O)Nc5ccc(F)c(F)c5)cc4C(=O)N3C)O2)cc1 here?
**A.** The AC50 was 22.2 µM.

**Q.** For O=C(C[C@H]1CC[C@@H]2[C@H](COC[C@H](O)CN2Cc2ccc(Oc3ccccc3)cc2)O1)N1CCc2ccccc2C1, which AC50 is on record?
**A.** The AC50 was 34.5 µM.

**Q.** With N#C[C@H]1N[C@H](CO)[C@H]1c1ccc(C#Cc2ccccc2F)cc1 as the molecule, how does the AC50 read?
**A.** Its AC50 is < 0.26 µM.

**Q.** Which AC50 does the source give for COc1ccccc1C#Cc1ccc2c(c1)O[C@H](CN(C)Cc1cccnc1)[C@H](C)CN([C@@H](C)CO)S2(=O)=O here?
**A.** Its AC50 is 17.4 µM.

**Q.** For O=C(C[C@@H]1C[C@@H]2c3cc(NS(=O)(=O)c4ccc(F)cc4)ccc3O[C@@H]2[C@@H](CO)O1)NCc1ccc(Oc2ccccc2)cc1, which AC50 is on record?
**A.** Its AC50 is 8.07 µM.

**Q.** For O=C(C[C@@H]1CC[C@H]2[C@@H](COC[C@H](O)CN2Cc2ccc(Oc3ccccc3)cc2)O1)N1CCc2ccccc2C1, which AC50 is on record?
**A.** Its AC50 is 19.7 µM.

**Q.** With N#C[C@H]1[C@H](c2ccc(C#Cc3ccccc3F)cc2)[C@@H](CO)N1C(=O)c1cccnc1 as the molecule, how does the AC50 read?
**A.** The AC50 was 15 µM.

**Q.** With O=C(Nc1ccc(C(F)(F)F)cc1)Nc1ccc2c(c1)[C@@H]1C[C@H](CC(=O)N3CCc4ccccc4C3)O[C@H](CO)[C@@H]1O2 as the molecule, how does the AC50 read?
**A.** The AC50 was 18.3 µM.

**Q.** For CN(C)c1ccc2c(c1)[C@@H]1C[C@H](CC(=O)NCc3ccc(Oc4ccccc4)cc3)O[C@@H](CO)[C@@H]1O2, which AC50 is on record?
**A.** Its AC50 is 9.81 µM.

**Q.** For Cc1ccc(S(=O)(=O)N(C)C[C@H]2Oc3cc(C#Cc4ccncc4)ccc3S(=O)(=O)N([C@@H](C)CO)C[C@H]2C)cc1, which AC50 is on record?
**A.** Its AC50 is 21.4 µM.

**Q.** For N#C[C@H]1[C@H](c2ccc(C#Cc3ccccc3F)cc2)[C@H](CO)N1C(=O)c1cccnc1, which AC50 is on record?
**A.** Its AC50 is 12.6 µM.

**Q.** Which AC50 does the source give for COc1ccc(-c2cccc(-c3nc(C(=O)NCC(F)(F)F)cc4c3[C@H](CCO)N([S@@](=O)C(C)(C)C)C4)c2)cc1 here?
**A.** Its AC50 is 24.3 µM.

**Q.** For CN(C)C(=O)c1ccc(-c2cccc(-c3nc(C(=O)NCc4ccccc4)cc4c3[C@@H](CCO)N([S@](=O)C(C)(C)C)C4)c2)cc1, which AC50 is on record?
**A.** The AC50 was 13.7 µM.

**Q.** Which AC50 does the source give for Cc1cc(C(=O)Nc2ccc3c(c2)C(=O)N(C)[C@H]2CC[C@@H](CC(=O)NCc4ccc(-c5ccccc5)cc4)O[C@H]2CO3)no1 here?
**A.** The AC50 was 10.8 µM.

**Q.** Which AC50 does the source give for N#C[C@H]1[C@@H](c2ccc(-c3cccnc3)cc2)[C@@H](CO)N1C(=O)Nc1ccc(F)cc1 here?
**A.** Its AC50 is 13.9 µM.

**Q.** With O=C(C[C@H]1C[C@H]2c3cc(NS(=O)(=O)c4ccc(F)cc4)ccc3O[C@H]2[C@H](CO)O1)NCc1ccc(Oc2ccccc2)cc1 as the molecule, how does the AC50 read?
**A.** The AC50 was 10 µM.

**Q.** For O=C(C[C@@H]1C[C@H]2c3cc(NS(=O)(=O)c4ccc(F)cc4)ccc3O[C@H]2[C@@H](CO)O1)NCc1ccc(Oc2ccccc2)cc1, which AC50 is on record?
**A.** The AC50 was 15.3 µM.

**Q.** Which AC50 does the source give for CC(C)(C)[S@](=O)N1Cc2cc(C(=O)NCC(F)(F)F)nc(-c3cccc(-c4cccc(F)c4)c3)c2[C@@H]1CCO here?
**A.** The AC50 was 11.9 µM.

**Q.** For N#C[C@@H]1[C@H](c2ccc(C#Cc3ccccc3F)cc2)[C@@H](CO)N1C(=O)c1cccnc1, which AC50 is on record?
**A.** Its AC50 is 1.02 µM.

**Q.** For O=C(Nc1ccc(C(F)(F)F)cc1)Nc1ccc2c(c1)[C@H]1C[C@@H](CC(=O)N3CCc4ccccc4C3)O[C@@H](CO)[C@H]1O2, which AC50 is on record?
**A.** Its AC50 is 27.9 µM.

**Q.** Which AC50 does the source give for C[C@H](CO)N1C[C@H](C)[C@H](CN(C)C(=O)NC2CCCCC2)Oc2cc(/C=C/c3ccccc3)ccc2S1(=O)=O here?
**A.** Its AC50 is 31 µM.
